Data reported in patent EP2716637A1, “MANGIFERIN AGLYCONE CRYSTAL FORM I AND PREPARATION METHOD THEREOF” (Kunming Pharmaceutical Corp., priority 2011, dated 2012).
Like-named read-outs stand apart in the source and are kept apart here.

Legend:
[1] = Blood concentration after oral (intragastric) administration to Beagle dogs; assay type: in vivo
Procedure: Solid powder of mangiferin aglycone crystal form I and commercially available mangiferin aglycone (reference substance of mangiferin aglycone, purchased from Sigma Corporation, Lot No.: 8420-201002) were administered to Beagle dogs intragastrically respectively. The dosage of administration was 6mg/kg, and arterial blood of the dogs was drawn at different time points after administration to determine the content of mangiferin aglycone (See Table 4 and Figure 6). Table 4. Comparison of blood concentrations at different time points after mangiferin aglycone samples were administered orally to Beagle dogs

[2] = Stability of solutions in alkaline phosphate buffer, content by HPLC; assay type: physicochemical; conditions: for remaining at 2 h / remaining at 4 h / remaining at 6 h / remaining at 8 h / remaining at 12 h: phosphate buffer, read-out: content of mangiferin aglycone; for remaining at 2 h: standing time 2h; for remaining at 4 h: standing time 4h; for remaining at 6 h: standing time 6h; for remaining at 8 h: standing time 8h; for remaining at 12 h: standing time 12h
Procedure: Appropriate amounts of mangiferin aglycone crystal form I and mangiferin aglycone were taken respectively, and phosphate buffer of pH 8.0, pH 9.0 and pH 10.0 were added respectively, metered to 100 ml, and were allowed to stand at 37°C, and samples were taken at 2, 4, 6, 8 and 12 hours respectively, and the content of mangiferin aglycone were measured by HPLC method. Stability of solution of mangiferin aglycone crystal form I

[3] = Active destructing test (stability) with HPLC analysis; assay type: physicochemical
Procedure: Active destructing test of mangiferin aglycone crystal form I: high purity mangiferin aglycone obtained in the same batch was respectively subjected to the following treatments: • (1) Destruction by strong acid: 0.5 mg sample was precisely weighed in a 50 ml measuring flask, and 1 ml of 0.1 mol/L hydrochloric acid aqueous solution was added, mixed evenly, and was allowed to stand for 48 hours at 20~30°C; • (2) Destruction by strong base: 0.5 mg sample was precisely weighed in a 50 ml measuring flask, and 1 ml of 0.1 mol/L sodium hydroxide aqueous solution was added, mixed evenly, and was allowed to stand for 48 hours at 20~30°C; • (3) Destruction by strong oxidant: 0.5 mg sample was precisely weighed in a 50 ml measuring flask, and 1 ml of 10% aqueous solution of hydrogen peroxide (H2O2) was added, mixed evenly, and was allowed to stand for 48 hours at 20~30°C; • (4) Destruction by high temperature: 0.5 mg sample was precisely weighed in a 50 ml measuring flask, and was allowed to stand for 48 hours at 100°C; • (5) Destruction by strong light: 0.5 mg sample was precisely weighed in a 50 ml measuring flask, and was allowed to stand for 240 hours under strong light condition of 4500±500 lux. The above-mentioned testing samples were taken out at specified time points, and methanol was added to dissolve and diluted the sample to the scale mark, shook well, then […] samples were analyzed by HPLC.
Stability test of mangiferin aglycone crystal form I

[4] = pH 8, phosphate buffer pH8, 37°C
[5] = pH 9, phosphate buffer pH9, 37°C
[6] = pH 10, phosphate buffer pH10, 37°C
[7] = destructing by high temperature: 48 hours at 100°C
[8] = destructing by strong acid: 0.1 mol/L hydrochloric acid, 48 hours at 20~30°C
[9] = destructing by strong base: 0.1 mol/L sodium hydroxide, 48 hours at 20~30°C
[10] = destructing by strong light: 240 hours at 4500±500 lux
[11] = destructing by strong oxidant: 10% hydrogen peroxide, 48 hours at 20~30°C

O=c1c2cc(O)c(O)cc2oc2cc(O)cc(O)c12 [mangiferin aglycone crystal form I, 1,3,6,7-tetrahydroxyxanthone]
concentration at 0.25 h ([1]; dog, serum, po, 6 mg/kg, intragastrically, 6mg/kg, solid powder, 0.25 hr, read-out: Mangiferin aglycone concentration in serum): 721 nM | concentration at 0.5 h ([1]; dog, serum, po, 6 mg/kg, intragastrically, 6mg/kg, solid powder, 0.5 hr, read-out: Mangiferin aglycone concentration in serum): 470 nM | concentration at 0.75 h ([1]; dog, serum, po, 6 mg/kg, intragastrically, 6mg/kg, solid powder, 0.75 hr, read-out: Mangiferin aglycone concentration in serum): 601 nM | concentration at 1 h ([1]; dog, serum, po, 6 mg/kg, intragastrically, 6mg/kg, solid powder, 1 hr, read-out: Mangiferin aglycone concentration in serum): 387 nM | concentration at 1.5 h ([1]; dog, serum, po, 6 mg/kg, intragastrically, 6mg/kg, solid powder, 1.5 hr, read-out: Mangiferin aglycone concentration in serum): 163 nM | concentration at 2 h ([1]; dog, serum, po, 6 mg/kg, intragastrically, 6mg/kg, solid powder, 2 hr, read-out: Mangiferin aglycone concentration in serum): 158 nM | concentration at 3 h ([1]; dog, serum, po, 6 mg/kg, intragastrically, 6mg/kg, solid powder, 3 hr, read-out: Mangiferin aglycone concentration in serum): 119 nM | concentration at 4 h ([1]; dog, serum, po, 6 mg/kg, intragastrically, 6mg/kg, solid powder, 4 hr, read-out: Mangiferin aglycone concentration in serum): 96 nM | concentration at 6 h ([1]; dog, serum, po, 6 mg/kg, intragastrically, 6mg/kg, solid powder, 6 hr, read-out: Mangiferin aglycone concentration in serum): 84.4 nM | concentration at 8 h ([1]; dog, serum, po, 6 mg/kg, intragastrically, 6mg/kg, solid powder, 8 hr, read-out: Mangiferin aglycone concentration in serum): 80.8 nM | oral bioavailability ([1]; same oral dosage, compared with commercially available mangiferin aglycone): higher | stability of solution ([2]; different alkaline phosphate buffer solutions, compared with mangiferin aglycone): better | remaining at 2 h [2, 4]: 98.6% | remaining at 4 h [2, 4]: 98.4% | remaining at 6 h [2, 4]: 98.3% | remaining at 8 h [2, 4]: 98.2% | remaining at 12 h [2, 4]: 97.5% | remaining at 2 h [2, 5]: 98.5% | remaining at 4 h [2, 5]: 98.2% | remaining at 6 h [2, 5]: 98% | remaining at 8 h [2, 5]: 97.8% | remaining at 12 h [2, 5]: 97.2% | remaining at 2 h [2, 6]: 97.2% | remaining at 4 h [2, 6]: 97.4% | remaining at 6 h [2, 6]: 97% | remaining at 8 h [2, 6]: 96.3% | remaining at 12 h [2, 6]: 95% | stability to light, moisture, heat ([3]; conclusion from the active destructing test): stable | peak area of mangiferin aglycone [3, 7]: 233 | situations of other degradation products [3, 7]: No new peak for degradation product was found | peak area of mangiferin aglycone [3, 8]: 234 | situations of other degradation products [3, 8]: No new peak for degradation product was found | peak area of mangiferin aglycone [3, 9]: 0 | situations of other degradation products [3, 9]: UV shift occurred, and there were many peaks for degradation products | peak area of mangiferin aglycone [3, 10]: 234 | situations of other degradation products [3, 10]: No peak for degradation product was found | peak area of mangiferin aglycone [3, 11]: 215 | situations of other degradation products [3, 11]: One new degradation product was found | peak area of mangiferin aglycone ([3]; undestructed (baseline sample)): 234 | situations of other degradation products ([3]; undestructed (baseline sample)): No new peak for degradation product was found
